From US20030008857A1, “Photodynamic therapy (PDT) in combination with factors that bind cell surface apoptosis-inducing receptors” (priority 1999, published 2003)
Entries after “also recorded” stand apart in the source; their conditions may differ.

Legend:
HeLa/Bcl-2 cells = assay: MTT cell viability assay; assay type: cell-based
Protocol: (§1) HeLa cells were from the American Type Culture Collection (Manassas, Va.). Cells were grown in Dulbecco's modified Eagles medium (DMEM) supplemented with penicillin (100 U/ml), streptomycin (100 μg/ml), 2 mM L-glutamine, 1 mM HEPES buffer, and 10% heat-inactivated fetal bovine serum (FBS). HeLa cells over-expressing Bcl-2 and Bcl-xL were generated as described (Vander Heiden et al.). Briefly, Bcl-2 and Bcl-xL inserts were cloned into an EcoRI site of a pSFFV-neo vector (Fuhlbrigge et al.). Vectors containing inserts, or no insert (neo), were transfected into HeLa cells by electroporation. After selection in G418 (Gibco/BRL Life Technologies), cells were cloned by limiting dilution and transfectants screened for Bcl-xL or Bcl-2 by Western blot analysis. Transfected cell lines were maintained in complete DMEM with G418 (10 μg/ml).
(§2) For treatments with TRAIL and PDT, cells were incubated with 0-100 ng/ml verteporfin for 60 min at 37° C. in complete DMEM with 2% FBS or incubated with medium alone. Cells were light protected or exposed to blue fluorescent light to give a total dose of 1 J/cm^2. For experiments where cells were treated with 0-1000 ng/ml TRAIL (BIOMOL, Plymouth Meeting, Pa.), this compound was added immediately after light treatment to HeLa cells in complete DMEM with 10% FBS. Cells were maintained at 37° C. with 5% CO2
(§3) To assess their viability, cells were cultured in 96-well microtiter plates and the MTT (3-(4,5)-dimethylthiazol-2-yl)-2,5-diphenyl tetrazolium bromide) calorimetric assay was performed as described (Mosmann et al.) with modifications. Following treatment, culture medium was decanted and replaced with complete DMEM containing 10% FBS. At 24 h following treatment, culture medium was aspirated and 50 μg of MTT in 100 μl of DMEM containing 2% FBS was added to each well. The reaction was stopped 2 h later by the addition of 150 μl of acidified isopropanol. Color development was measured at 590 nm with a microtiter plate reader. The result obtained for PDT, TRAIL or TRAIL plus PDT treatments was compared to the MTT value obtained for cells not given any treatment and expressed as percentages (%) of the control result.

HeLa/neo cells = assay: MTT cell viability assay; assay type: cell-based
Protocol: as §1, §2, §3

HeLa/Bcl-xL cells = assay: MTT cell viability assay; assay type: cell-based
Protocol: as §1, §2, §3

caspase-3, -6 and -8 = assay: Caspase cleavage activity of cell extracts, statements covering DEVD, VEID and IETD peptides together; assay type: cell-based, human; conditions: for protease activity on DEVD, VEID and IETD peptides, single treatment: FIG. 7: verteporfin 5 ng/ml with light, FasL 7.5 ng/ml or TRAIL 20 ng/ml alone
Protocol: The human Jurkat T cell line containing a neomycin resistance gene was obtained from Dr. Charles Rudin (University of Chicago). Cells were maintained in RPMI 1640 medium containing 10% heat-inactivated fetal calf serum (FCS) with penicillin (100 U/mL), streptomycin (100 μg/mL), 20 mM HEPES, 2 mM L-glutamine and G418 (1 μg/ml) purchased from Gibco BRL (Burlington, Ontario) in a CO2 incubator at 37° C. To elicit apoptosis with PDT, Jurkat cells were incubated with different amounts of liposomally formulated benzoporphyrin derivative monoacid ring A (BPD-MA, verteporfin, QLT PhotoTherapeutics, Inc., Vancouver, Canada) for one hour at 37° C. under light-protected conditions. The culture medium used for experiments was identical to that used for the passage of the cells except that FCS was used at a concentration of 5%. Experiments were conducted either in 6-well culture plates at 5×10^6 cells in a volume of 4 ml per well or in 96-well microtiter plates at 1×10^5 cells per well at 0.2 ml per well. Cells were irradiated with light of a wavelength of 690 nm delivered at 65-73 mW/sec from light emitting diodes (LED) to achieve a total light dose of 5 J/cm^2. Cells were returned to the incubator until required for analysis.
FasL and TRAIL as used were recombinant preparations. FasL was obtained from Upstate Biotechnology (Lake Placid NY) and corresponded to amino acids 103-281 of the soluble domain of human FasL. TRAIL was obtained from BIOMOL Research Laboratories (Plymouth Meeting, Pa.) and corresponded to residues 114-281 of the soluble domain of human TRAIL. FasL and TRAIL were usually added immediately following the treatment of cells with PDT, although in one series of experiments these factors were added at 1, 2 or 3 hours post-irradiation.
Whole cell lysates were prepared by washing 1×10^7 cells per sample twice with ice-cold PBS. Cells were disrupted with 1 mL of lysis buffer [1% Nonidet P-40 detergent (NP-40), 20 mM Tris-HCl, pH 8.0, 137 mM NaCl, 10% glycerol, 1 mM phenylmethylsulfonyl fluoride (PMSF) aprotinln (0.15 U/mL) and 1 mM sodium orthovanadate] for 20 minutes on ice. Lysates were centrifuged for 10 minutes at 15,800×g at 4° C.
These sequences are denoted by letter codes for each amino acid. To evaluate relative DEVDase (caspases 3 and 7), VEIDase (caspase 6) and IETDase (caspase 8) cleavage activity, Jurkat cell lysates were incubated with caspase-specific fluorescent substrates as described by Granville et al. (“Photodynamic therapy induces caspase-3 activation in HL-60 cells”, Cell Death Differ., 4, 623-629 (1997)). Briefly, lysates were incubated with reaction buffer (20 mM Tris pH 7.5, 137 mM NaCl, 1% NP-40, 10% glycerol) containing 100 μM of the caspase substrates Ac-DEVD-AMC (Calbiochem, Cambridge, Mass.), Ac-VEID-AMC (Calbiochem, Cambridge, Mass.), Ac-lETD-AMC (BIOMOL, Plymouth Meeting Pa.), and Ac-LEHD-AMC (Calbiochem, Cambridge, Mass.). The letter codes for the amino acid residues present within the inhibitor peptides are as following: D=aspartic acid; E=glutamic acid; H=histidine; I=isoleucine; T=threonine; V=valine. The reaction mixture was incubated at 37° C. for 1 (DEVD.AMC) or 24 (VEID.AMC and IETH.AMC) h and fluorescence was measured using an excitation at 380 nm and an emission wavelength of 460 nm with a CytoFluor™ 2350 fluorescent measuring system (Perseptive Biosystems, Burlington, Ont).

[1] = TRAIL in combination with verteporfin PDT, 24 hours
[2] = TRAIL up to 25 ng/ml, 24 hours post-treatment
[3] = PDT with verteporfin at 25 or 50 ng/ml, blue fluorescent light 1 J/cm^2, 24 hours

With “TRAIL: recombinant, residues 114-281 of the soluble domain of human TRAIL (BIOMOL)” the cell viability (HeLa/Bcl-2 cells; TRAIL at 500 ng/ml, 24 hours) was “a significant degree of protection against TRAIL”, the “cell viability compared with PDT or TRAIL alone and with the expected additive effect” value (HeLa/Bcl-2 cells; [1]) was “significantly decreased cell viability” and the cell viability (HeLa/Bcl-2 cells; [2]) was “little or no loss of cell viability”. For the same substance, the cell viability (HeLa/neo cells; TRAIL at 500 ng/ml, 24 hours) was “a complete loss of viability”, the cell viability (HeLa/neo cells; TRAIL at 50 and 100 ng/ml, 24 hours) was “a loss in viability” and the “cell viability compared with PDT or TRAIL alone and with the expected additive effect” value (HeLa/neo cells; [1]) was “significantly decreased cell viability”. For the same substance, the cell viability (HeLa/neo cells; [2]) was “little or no loss of cell viability”, the cell viability (HeLa/Bcl-xL cells; TRAIL at 500 ng/ml, 24 hours) was “a significant degree of protection against TRAIL” and the “cell viability compared with PDT or TRAIL alone and with the expected additive effect” value (HeLa/Bcl-xL cells; [1]) was “significantly decreased cell viability”. For the same substance, the cell viability (HeLa/Bcl-xL cells; [2]) was “little or no loss of cell viability”, the “caspase activity compared with the treatments given independently” value (caspase-3, -6 and -8; FIG. 7: factor combined with PDT (verteporfin 5 ng/ml, 5 J/cm^2), 3 hours) was “higher caspase activity” and the “protease activity on DEVD, VEID and IETD peptides, single treatment” value (caspase-3, -6 and -8; 3 hours) was “modestly increased”. For the same substance, the “caspase activity compared with PDT or TRAIL applied independently” value (caspase-3, -6 and -8; TRAIL 20 ng/ml plus PDT, each verteporfin concentration, 3 hours) was “higher” and the “protease activity compared with FasL or TRAIL alone” value (caspase-3, -6 and -8; factor plus verteporfin in the absence of light irradiation) was “no different”.
In the case of “benzoporphyrin derivative monoacid ring A [verteporfin, reference compound]”, the cell viability (HeLa/Bcl-2 cells; [3]) is reported as “some loss in viability”, the cell viability (HeLa/neo cells; [3]) is reported as “some loss in viability” and the cell viability (HeLa/Bcl-xL cells; [3]) is reported as “some loss in viability”. The “protease activity on DEVD, VEID and IETD peptides, single treatment” value (caspase-3, -6 and -8; 3 hours) was “modestly increased”, the “verteporfin concentration at which the effect of PDT on caspase activity was greatest” value (caspase-3, -6 and -8; light 5 J/cm^2, extracts 3 hours post-PDT) was 5 ng/mL and the “effect of PDT alone on DEVDase-, VEIDase- and IETDase-like activity” value (caspase-3, -6 and -8; verteporfin and light 5 J/cm^2, no FasL or TRAIL, 3 hours post-PDT) was “promoted DEVDase-like, VEIDase-like and IETDase-like activity; also recorded: increased levels of DEVDase-like, VEIDase-like and IETDase-like activity”.
